EC50 data for 18 compounds are collected here from patent US10202368B2, “CXCR7 receptor modulators” (IDORSIA PHARMACEUTICALS LTD, priority 2014, dated 2019).

CXCR7, sequence (P25106 whole entry, the tested form may be a part): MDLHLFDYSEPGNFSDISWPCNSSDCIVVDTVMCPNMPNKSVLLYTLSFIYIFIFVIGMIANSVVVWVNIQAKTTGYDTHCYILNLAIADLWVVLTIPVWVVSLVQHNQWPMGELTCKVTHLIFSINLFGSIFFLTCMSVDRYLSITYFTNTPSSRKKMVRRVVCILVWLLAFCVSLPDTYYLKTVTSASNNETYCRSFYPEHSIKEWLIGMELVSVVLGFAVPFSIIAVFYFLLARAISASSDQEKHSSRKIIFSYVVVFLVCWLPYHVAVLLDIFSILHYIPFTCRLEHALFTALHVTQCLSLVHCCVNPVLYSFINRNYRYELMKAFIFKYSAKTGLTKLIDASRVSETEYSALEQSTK
CXCR7, sequence (P32121 whole entry partner, the tested form may be a part): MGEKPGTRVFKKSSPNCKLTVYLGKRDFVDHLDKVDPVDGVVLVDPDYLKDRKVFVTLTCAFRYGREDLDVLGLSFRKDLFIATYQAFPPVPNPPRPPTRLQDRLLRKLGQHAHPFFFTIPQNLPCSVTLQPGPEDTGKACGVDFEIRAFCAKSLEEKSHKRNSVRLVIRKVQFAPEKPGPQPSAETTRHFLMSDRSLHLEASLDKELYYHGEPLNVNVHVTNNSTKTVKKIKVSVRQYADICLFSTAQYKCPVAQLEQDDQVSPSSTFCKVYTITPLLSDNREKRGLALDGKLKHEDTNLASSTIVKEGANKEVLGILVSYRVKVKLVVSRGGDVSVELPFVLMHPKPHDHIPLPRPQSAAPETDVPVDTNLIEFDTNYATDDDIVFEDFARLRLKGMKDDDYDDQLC

The assay concerns the target CXCR7 (Homo sapiens (Human), UniProt P25106). Nature of the assay: PathHunter CHO-K1 CXCR7 β-arrestin assay (agonistic activity). Type of assay: cell-based. Particulars: β-arrestin recruitment in PathHunter CHO-K1 CXCR7 β-arrestin cells, 90 minutes at 37° C., geometric mean values. The procedure, abridged: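 The enzyme-fragment complementation format pairs ProLink-tagged CXCR7 with EA–β-arrestin 2 in CHO-K1 cells, seeded at 5000/well for 24 h and serum-starved in OPTIMEM 3–4 h. Compounds were added in HBSS/20 mM HEPES/0.2% BSA for 90 min at 37 °C, followed by 1 h detection at room temperature and chemiluminescence read-out. EC50 is the geometric mean of several measurements.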
On the technique in general: Arrestin recruitment assays detect the binding of arrestin to an activated receptor.
As a reminder, the EC50 is the concentration giving half of the maximal effect. The low end stands for an effect from little substance, the high end for a need for much substance. For `CCN1CCOc2c(cccc2NCC(=O)N(CCN2CCCC2)Cc2ncccc2C(F)(F)F)C1` [Example 74, 2-(4-Ethyl-2,3,4,5-tetrahydro-benzo[f][1,4]oxazepin-9-ylamino)-N-(2-pyrrolidin-1-yl-ethyl)-N-(3-trifluoromethyl-pyridin-2-ylmethyl)-acetamide], the EC50 amounted to 5 nM.

`CCN1CCOc2c(cccc2NCC(=O)N(CCN2CCCC2)Cc2ncccc2Cl)C1` [Example 75, N-(3-Chloro-pyridin-2-ylmethyl)-2-(4-ethyl-2,3,4,5-tetrahydro-benzo[f][1,4]oxazepin-9-ylamino)-N-(2-pyrrolidin-1-yl-ethyl)-acetamide] gave an EC50 of 19 nM.

Regarding `CCN1CCOc2c(cccc2NCC(=O)N(CCN(C)C)Cc2cnc(C(F)(F)F)s2)C1` [Example 76, N-(2-Dimethylamino-ethyl)-2-(4-ethyl-2,3,4,5-tetrahydro-benzo[f][1,4]oxazepin-9-ylamino)-N-(2-trifluoromethyl-thiazol-5-ylmethyl)-acetamide], the EC50 was determined as 430 nM.

`CCN1CCOc2c(cccc2NCC(=O)N(CCN(C)C)Cc2c(C(F)(F)F)nn(C)c2Cl)C1` [Example 77, N-(5-Chloro-1-methyl-3-trifluoromethyl-1H-pyrazol-4-ylmethyl)-N-(2-dimethylamino-ethyl)-2-(4-ethyl-2,3,4,5-tetrahydro-benzo[f][1,4]oxazepin-9-ylamino)-acetamide]: it took 280 nM to reach a half-maximal effect (EC50).

Regarding `CCN1CCOc2c(cccc2NCC(=O)N(CCN(C)C(=O)OC(C)(C)C)Cc2ncccc2Cl)C1` [Example 78, (2-{(3-Chloro-pyridin-2-ylmethyl)-[2-(4-ethyl-2,3,4,5-tetrahydro-benzo[f][1,4]oxazepin-9-ylamino)-acetyl]-amino}-ethyl)-methyl-carbamic acid tert-butyl ester], the EC50 worked out at 240 nM.

As for `O=C(CNc1cccc2c1OCCN(CC1CC1)C2)N(CCN1CCCC1)Cc1ncccc1C(F)(F)F` [Example 82, 2-(4-Cyclopropylmethyl-2,3,4,5-tetrahydro-benzo[f][1,4]oxazepin-9-ylamino)-N-(2-pyrrolidin-1-yl-ethyl)-N-(3-trifluoromethyl-pyridin-2-ylmethyl)-acetamide], the midpoint of the response, the EC50, lay at 2 nM.

The compound `CC(C)(C)NCCN(Cc1ccccc1C(F)(F)F)C(=O)CNc1cccc2c1OCCN(CC1CC1)C2` [Example 83, N-(2-tert-Butylamino-ethyl)-2-(4-cyclopropylmethyl-2,3,4,5-tetrahydro-benzo[f][1,4]oxazepin-9-ylamino)-N-(2-trifluoromethyl-benzyl)-acetamide] came in with an EC50 of 3 nM.

In turn, `CN(C)CCN(Cc1ccccc1C(F)(F)F)C(=O)CNc1cccc2c1OCCN(CC1CC1)C2` [Example 84, 2-(4-Cyclopropylmethyl-2,3,4,5-tetrahydro-benzo[f][1,4]oxazepin-9-ylamino)-N-(2-dimethylamino-ethyl)-N-(2-trifluoromethyl-benzyl)-acetamide] displayed an EC50 of 4 nM.

Compound `CC(C)NCCN(Cc1ccccc1C(F)(F)F)C(=O)CNc1cccc2c1OCCN(CC1CC1)C2` [Example 85, 2-(4-Cyclopropylmethyl-2,3,4,5-tetrahydro-benzo[f][1,4]oxazepin-9-ylamino)-N-(2-isopropylamino-ethyl)-N-(2-trifluoromethyl-benzyl)-acetamide] came in with an EC50 of 3 nM.

`CN(C)CCN(Cc1ccccc1Cl)C(=O)CNc1cccc2c1CN(CC1CC1)CCO2` [Example 86, N-(2-Chloro-benzyl)-2-(4-cyclopropylmethyl-2,3,4,5-tetrahydro-benzo[f][1,4]oxazepin-6-ylamino)-N-(2-dimethylamino-ethyl)-acetamide] gave an EC50 of 14 nM.

Take `Cc1cccnc1CN(CCN(C)C)C(=O)CNc1cccc2c1CN(CC1CC1)CCO2` [Example 87, 2-(4-Cyclopropylmethyl-2,3,4,5-tetrahydro-benzo[f][1,4]oxazepin-6-ylamino)-N-(2-dimethylamino-ethyl)-N-(3-methyl-pyridin-2-ylmethyl)-acetamide]: the EC50 is 23 nM. Against the preceding compound, the EC50 is about 1.6-fold higher.

As for `CN(C)CCN(Cc1cccc(Cl)c1Cl)C(=O)CNc1cccc2c1CN(CC1CC1)CCO2` [Example 88, 2-(4-Cyclopropylmethyl-2,3,4,5-tetrahydro-benzo[f][1,4]oxazepin-6-ylamino)-N-(2,3-dichloro-benzyl)-N-(2-dimethylamino-ethyl)-acetamide], a half-maximal effect (EC50) was put at 15 nM. This EC50 is about 1.5-fold lower than that of the compound before.

Consider `CC(C)NCCN(Cc1ccccc1C(F)(F)F)C(=O)CNc1cccc2c1CN(CC1CC1)CCO2` [Example 89, 2-(4-Cyclopropylmethyl-2,3,4,5-tetrahydro-benzo[f][1,4]oxazepin-6-ylamino)-N-(2-isopropylamino-ethyl)-N-(2-trifluoromethyl-benzyl)-acetamide], for which the EC50 was determined as 5 nM. Against the preceding compound, the EC50 is about 3-fold lower.

`CC(C)NCCN(Cc1ncccc1C(F)(F)F)C(=O)CNc1cccc2c1CN(CC1CC1)CCO2` [Example 90, 2-(4-Cyclopropylmethyl-2,3,4,5-tetrahydro-benzo[f][1,4]oxazepin-6-ylamino)-N-(2-isopropylamino-ethyl)-N-(3-trifluoromethyl-pyridin-2-ylmethyl)-acetamide] had an EC50 of 7 nM. The EC50 values of the last two compounds are within 1.5-fold of each other.

In turn, `CC(C)(C)NCCN(Cc1ccccc1Cl)C(=O)CNc1cccc2c1CN(CC1CC1)CCO2` [Example 91, N-(2-tert-Butylamino-ethyl)-N-(2-chloro-benzyl)-2-(4-cyclopropylmethyl-2,3,4,5-tetrahydro-benzo[f][1,4]oxazepin-6-ylamino)-acetamide] returned an EC50 of 8 nM.

As to `CC(C)(C)NCCN(Cc1ncccc1Cl)C(=O)CNc1cccc2c1CN(CC1CC1)CCO2` [Example 92, N-(2-tert-Butylamino-ethyl)-N-(3-chloro-pyridin-2-ylmethyl)-2-(4-cyclopropylmethyl-2,3,4,5-tetrahydro-benzo[f][1,4]oxazepin-6-ylamino)-acetamide], the EC50 amounted to 10 nM.

Turning to `CC(C)(C)NCCN(Cc1ccccc1C(F)(F)F)C(=O)CNc1cccc2c1CN(CC1CC1)CCO2` [Example 93, N-(2-tert-Butylamino-ethyl)-2-(4-cyclopropylmethyl-2,3,4,5-tetrahydro-benzo[f][1,4]oxazepin-6-ylamino)-N-(2-trifluoromethyl-benzyl)-acetamide], the midpoint of the response, the EC50, lay at 3 nM.

In turn, `CC(C)(C)NCCN(Cc1ncccc1C(F)(F)F)C(=O)CNc1cccc2c1CN(CC1CC1)CCO2` [Example 94, N-(2-tert-Butylamino-ethyl)-2-(4-cyclopropylmethyl-2,3,4,5-tetrahydro-benzo[f][1,4]oxazepin-6-ylamino)-N-(3-trifluoromethyl-pyridin-2-ylmethyl)-acetamide] had an EC50 of 4 nM. This EC50 and that of the compound before are within 1.5-fold of each other.
